Values joined by “and” are separate entries in the source; they are usually repeats but may differ in a detail not shown here. Equal values may be shown once.
What was measured:
[1] = system: female Aedes aegypti adults; details: estimated from a previous report (Licciardi 2006); cited from earlier work
[2] = system: female Aedes aegypti adults; experiment: High-throughput in vitro screening assay, spatial repellency; format: in vivo; details: for 30-minute RD50 compared with that of DEET: 30 minutes, α = 0.05; for RD50 (30 min), half-repellent dose / RD50 (60 min), half-repellent dose: dose per filter paper surface area, 95% CI; for spatial repellency (in words): highest-tested dose of 100 μg/cm^2
Source text: A high-throughput screening method for evaluating spatial repellency and vapor toxicity, described by Jiang S., et al. (2019, “High-Throughput Screening Method for Evaluating Spatial Repellency and Vapour Toxicity to Mosquitoes,” Med. Vet. Entomol. 33: 388-396), was used for this study. As shown in FIG. 2 of Jiang S., et al., assay tubes were constructed by covering 12.5 cm glass tubes on one side with netting secured by a rubber band. The tubes were used in horizontal orientation. Adult mosquitos 2-7 days old were anesthetized on ice for approximately 5 minutes and 16 females were transferred to each tube. The other end of the tube was then closed with netting and a rubber band.
The conical ends of 50 mL centrifuge tubes (Eppendorf, Enfield, Connecticut, USA) were cut at approximately the 10 mL mark to create the end caps for the assay tubes. […] For repellency tests, filter papers for the “untreated” side of the assay tube received pure acetone, whereas filter papers for the “treated” side received acetone solution containing a dissolved compound of interest. For knockdown tests, both filter papers were treated with acetone solution containing one or more compounds of interest. Acetone on both filter papers served as negative controls.
For repellency assays, filter papers were given 10 minutes of evaporation time before being placed into the end caps with forceps (Jiang S., et al. 2019, Supra). For knockdown assays, filter papers were given 5 minutes of evaporation time before being placed into the end caps. […] Assay tubes were capped such that the cap securely overlapped the glass but approximately 5 mm of space was left between the netting and the filter paper so that the mosquitos could not contact the filter paper.
Assay tubes were placed on a white polystyrene platform with wooden sticks glued flatly across it to prevent the tubes from rolling. A straight black line was drawn down the center of the platform and assay tubes were centered on the line at the beginning of the tests. In repellency assays, data were collected at 15, 30, and 60 minutes after the end caps were placed on the assay tubes. Assay tubes were not disturbed for the entire 60 minutes. At each time point, the number of mosquitos that remained on the treated side was visually assessed and recorded. The treated side was alternated with each set of tests. For repellency tests, DEET at a dose of 100 μg/cm^2 served as the positive control.
For the high-throughput in vitro screening assays, analyses were conducted with R version 4.2.2 statistical software (R Core Team, 2022, “R: a language and environment for statistical computing. R foundation for statistical computing,” Vienna, Austria). Concentrations were calculated in terms of filter paper surface area (μg/cm^2) for repellency assays and in terms of assay tube volume (μg/cm^3) for knockdown assays.
Half-repellent (RD50), half-knockdown (KD50), and half-lethal (LD50) doses were calculated from dose-response curves (DRCs) obtained by four-parameter log-logistic equation models generated using the drc package (Dose Response Curve Analyses Software; Ritz C. et al., 2015, “Dose-response analysis using R,” PLOS ONE 10: e0146021). For repellency test analysis, the upper and lower asymptotes for the proportion of mosquitos remaining on the treated side were fixed at 0.5 and 0, respectively. For KD and mortality test analysis, the upper and lower asymptotes for the proportion of mosquitos knocked down or killed were fixed at 1.0 and 0, respectively. To determine whether RD50, KD50, or LD50 values differed across compounds at each timepoint, a joint model assuming different values for each compound and a null model that assumed a single value for all compounds were compared with a likelihood ratio test.

[3] = system: female Aedes aegypti adults; experiment: High-throughput in vitro screening assay, knockdown and mortality; details: for KD50 (30 min), half-knockdown dose / KD50 (60 min), half-knockdown dose: dose per assay tube volume, 95% CI; for knockdown and mortality activities (in words): in vivo
[4] = system: female Aedes aegypti adults; experiment: Arm-in-cage cloth-patch in vivo assay (topical repellency); details: for Minimum Effective Dose (MED): Mean ± SEM, lowest dosage with five or fewer bites through repellent-treated cloth in 1-minute exposure, at least three volunteers; for topical repellency (in words): initial screening dose of 0.187 mg/cm^2
Source text: Arm-in-Cage Test Cloth-Patch in vivo Assay Pyrethroid-susceptible yellow fever mosquitoes Ae. aegypti (Orlando strain) were reared in the United States Department of Agriculture Mosquito and Fly Research Unit in Gainesville, FL under standard protocols. Three to seven-day-old, starved female mosquitoes were collected using a “draw box” (Posey, K. and Schreck, C. E, 1981, “An airflow apparatus for selecting female mosquitoes for use in repellent and attraction studies” Mosquito News 41: 566-568; US. Department of Agriculture, 1977, Repellent activity of compounds submitted by Walter Reed Army Institute of Research. Part 1. Protection time and minimum effective dosage against Aedes aegypti mosquitoes. Tech. Bull. No. 1549) and were placed in cages at an approximate density 200 mosquitoes/cage. Repellency was determined according to a standard protocol (Bernier, U. R., et al, 2022. “Evaluation and application of repellent-treated uniform/clothing and textiles against vector mosquitoes,” In Advances in Arthropod Repellents (pp. 69-94). Academic Press) and reported as the minimum effective dosage (MED). […] A nylon leg stocking was placed over the arm to prevent direct contact of the repellent-treated cloth patch with the skin. […]. Cloth was treated by placing a rolled bandage (50 cm^2) into each vial containing 1 mL of solution and allowing the patch to absorb the solution completely. The cloth was taped over a 4 by 9-cm opening cut into a vinyl plastic sheet that was draped around the volunteers' arms and taped in place. The cloth was air-dried approximately 15 min before conducting each test. The work reported here is an average of the MED for at least three volunteers. Each volunteer covered his or her arm with a nylon stocking to avoid contact between the skin and the treated cloth and wore a rubber glove to prevent mosquito bites on the hand.
. The minimum effective dose (MED) was determined for each repellent and subject, defined as the lowest concentration that prevents biting). MEDs from each subject were pooled and reported as the average among all replicates/subjects with SEM. A minimum of 3 replicates were performed on at least three human subjects. Written informed consent was obtained for all human subjects used in this study in accordance with IRB protocol #20193320, as approved by the WCG™ IRB.
(§1) Statistical Analyses: Student's T-test was used to compare the means between tested compound and DEET and Icaridin in the arm-in-cage in vivo assay and neurophysiological study.

[5] = system: Aedes aegypti larvae central nervous system; experiment: Neurophysiological experiment, nerve firing of mosquito central nervous system
Protocol: Neurophysiological Experiment—Action on Mosquito Central Nervous System All compounds were screened at 100 μM on the central nervous system of 4th instar Aedes aegypti larvae. Nerve firing was reported as the percentage firing compared to a pre-application baseline period that was determined approximately 3 minutes prior to drug application, similar to methods outlined in Norris, E. J. and Bloomquist J. R. (2021, “Recording central neurophysiological output from mosquito larvae for neuropharmacological and insecticide resistance studies,” J. Insect Physiol. 135: 104319). […] Compound potency was characterized by “time-to-nerve block” defined as the first time point where significant nerve block was observed compared to the vehicle control via a Student T-test, p<0.05 as shown in Table 1 and FIG. 2.
as §1

[6] = at 25.00° C.; cited from earlier work
[7] = literature evaluations; cited from earlier work
Vapor pressure = format: physicochemical; details: MFA versus MDMA

SMILES | dose at which knockdown might begin [1] | mosquitoes repelled ([2]; 60 minutes, dose of 100 μg/cm^2) | KD50 (30 min), half-knockdown dose [3] | KD50 (60 min), half-knockdown dose [3] | Minimum Effective Dose (MED) [4] | Time to nerve block ([5]; 100 μM on central nervous system of 4th instar larvae) | 30-minute RD50 compared with that of DEET [2] | vapor pressure [6] | RD50 (30 min), half-repellent dose [2] | safety (in words) [7] | RD50 (60 min), half-repellent dose [2] | spatial repellency (in words) [2] | vapor pressure, times lower than that of MDMA (Vapor pressure) | time at which knockdown began ([3]; FIG. 6A, 6B, 6D) | knockdown and mortality activities (in words) [3] | topical repellency (in words) [4] | nerve block (in words) ([5]; 100 μM, 4th instar larvae)
CCN(CC)C(=O)c1cccc(C)c1 [DEET, N,N-diethyl-meta-toluamide, reference compound] | approximately 15 μg/cm^3 | 100% | >15 µg/mL | >15 µg/mL | 0.0100±0.003 mg/cm^2 and 0.0100 mg/cm^2 | – | – | – | – | – | – | – | – | – | – | – | –
COC(=O)c1ccccc1OC [M2MOB, methyl 2-methoxybenzoate] | – | – | >7 µg/mL | >7 µg/mL | 0.049 mg/cm^2 | 24 min | not significantly different from that of DEET | – | – | – | – | – | – | – | – | – | –
COC(=O)c1ccccc1N(C)C [MDMA, methyl N,N-dimethyl anthranilate] | – | – | – | – | 0.039 mg/cm^2 | – | significantly lower than that of DEET | 0.01 mmHg | 6.58 μg/cm^2 | – | – | – | – | – | – | – | –
COC(=O)c1ccccc1NC=O [MFA, methyl N-formylanthranilate] | – | – | – | – | 0.047 mg/cm^2 | – | – | 0.000013 mmHg | >100 μg/cm^2 | No adverse effects to humans have been found | >100 μg/cm^2 | did not show spatial repellencies | 769 times | – | – | – | –
CCCCOC(=O)c1ccccc1 [nBB, n-butyl benzoate] | – | – | – | 3.09 µg/mL | 0.148 mg/cm^2 | – | – | – | >100 μg/cm^2 | – | >100 μg/cm^2 | did not show spatial repellencies | – | 5 min | exhibited considerable knockdown and mortality activities | demonstrated repellency at doses lower than 0.187 mg/cm^2 on at least one test subject | –
CCCCCCOC(=O)c1ccccc1 [nHB, n-hexyl benzoate] | – | – | 7.06 µg/mL | 4.72 µg/mL | >0.187 mg/cm^2 | – | not significantly different from that of DEET | – | – | – | – | – | – | – | exhibited considerable knockdown and mortality activities | did not show any topical repellencies | –
CCCCCOC(=O)c1ccccc1 [nPeB, n-pentyl benzoate] | – | – | 4.77 µg/mL | 3.98 µg/mL | >0.187 mg/cm^2 | – | not significantly different from that of DEET | – | – | – | – | – | – | – | exhibited considerable knockdown and mortality activities | did not show any topical repellencies | Nerve block was produced by all compounds screened at this concentration, except for compound nPeB
